Data on five compounds can be found in US5378696A, “Rapamycin esters” (American Home Products Corporation, priority 1993, dated 1995).

The subject of one assay is pinch skin graft. The experiment in a line: survival time of pinch skin graft. The class given is in vivo, mouse (male DBA/2 donors, male BALB/c recipients). The conditions noted are these: intraperitoneally, mean graft survival time ± S.D. As for the experimental part:
(§1) Immunosuppressive activity was evaluated in an in vitro standard pharmacological test procedure to measure lymphocyte proliferation (LAF) and in two in vivo standard pharmacological test procedures. The first in vivo procedure was a popliteal lymph node (PLN) test procedure which measured the effect of compounds of this invention on a mixed lymphocyte reaction and the second in vivo procedure evaluated the survival time of a pinch skin graft.
The second in vivo test procedure is designed to determine the survival time of pinch skin graft from male DBA/2 donors transplanted to male BALB/c recipients. The method is adapted from Billingham R. E. and Medawar P. B., J. Exp. Biol. 28:385-402, (1951). Briefly, a pinch skin graft from the donor is grafted on the dorsum of the recipient as a homograft, and an autograft is used as control in the same region. […] Untreated recipients serve as rejection control. The graft is monitored daily and observations are recorded until the graft becomes dry and forms a blackened scab. This is considered as the rejection day. The mean graft survival time (number of days±S.D.) of the drug treatment group is compared with the control group.

Assay [1] deals with 5 strains of Candida albicans. The experiment in a line: antifungal plate test procedure, 5 strains (overall). In kind it is cell-based. The conditions noted are these: not evaluated; considered because of structural similarity. As for the experimental part:
(§2) The following represents the typical procedure used. Compound to be tested was placed on sterile dried 1/4" plate disks, and allowed to dry. Agar plates were seeded with fungi and allowed to solidify. The impregnated disks were placed on the seeded Agar surface and incubated for the time required for the particular culture. Results are expressed in MIC (μg/ml) to inhibit growth.

Assay [2] concerns lymphocyte proliferation, cells from the thymus of normal BALB/c mice (PHA and IL-1). Nature of the assay: comitogen-induced thymocyte proliferation procedure (LAF). In kind it is cell-based. The conditions noted are these: for LAF (ratio): thymocytes 72 hours with PHA and IL-1, rapamycin 1.0. As for the experimental part:
as §1
Briefly, cells from the thymus of normal BALB/c mice are cultured for 72 hours with PHA and IL-1 and pulsed with tritiated thymidine during the last six hours. […] Cells are harvested and incorporated; radioactivity is determined. inhibition of lymphoproliferation is assessed in percent change in counts per minute from non-drug treated controls. The results are expressed by the following ratio: [formula]

Assay [3] concerns mixed lymphocyte reaction, popliteal lymph node. The experiment in a line: popliteal lymph node (PLN) test procedure, in vivo mixed lymphocyte reaction. Details: species or system mouse (BALB/c donors, C3H recipients). The conditions noted are these: p.o. daily Day 0 to Day 4, carboxymethyl cellulose vehicle; rapamycin 1.0. As for the experimental part: as §1
A mixed lymphocyte reaction (MLR) occurs when lymphoid cells from genetically distinct animals are combined in tissue culture. Each stimulates the other to undergo blast transformation which results in increased DNA synthesis that can be quantified by the incorporation of tritiated thymidine. Since stimulating a MLR is a function of disparity at Major Histocompatibility antigens, an in vivo popliteal lymph node (PLN) test procedure closely correlates to host vs. graft disease. Briefly, irradiated spleen cells from BALB/c donors are injected into the right hind foot pad of recipient C3H mice. The drug is given daily, p.o. from Day 0 to Day 4. On Day 3 and Day 4, tritiated thymidine is given i.p., b.i.d. On Day 5, the hind popliteal lymph nodes are removed and dissolved, and radioactivity counted. […] Percent suppression is calculated using the non-drug treated animals as allogenic control.

The conditions of assay [4]: in vivo; cited from earlier work.
For another assay, the system named is Candida albicans. The conditions noted are these: in vitro and in vivo; cited from earlier work.
A further assay deals with transplant rejection. The conditions noted are these: cited from earlier work.
The subject of assay [5] is Candida albicans ATCC 38246. The experiment in a line: antifungal plate test procedure. The class given is cell-based. As for the experimental part:
as §2

For assay [6], the system named is Candida albicans ATCC 38248. The experiment in a line: antifungal plate test procedure. The class given is cell-based. As for the experimental part: as §2
A further assay deals with Candida albicans 3669. The experiment in a line: antifungal plate test procedure. The class given is cell-based. As for the experimental part:
as §2

Assay [7] relates to Candida albicans ATCC 10231. Nature of the assay: antifungal plate test procedure. In kind it is cell-based. As for the experimental part: as §2
For assay [8], the system named is Candida albicans ATCC 38247. The experiment in a line: antifungal plate test procedure. In kind it is cell-based. As for the experimental part: as §2

Structures are written as SMILES. Converted amounts (≈) assume the structure as drawn. “Also recorded” adds a separate entry of the source. Counter-ions that a name gives are not always drawn. Like-named read-outs stand apart in the source and are kept apart here. Some results are limits rather than exact numbers.

A word on the inhibition: it is the drop in the measured response relative to a control, in per cent. Read a low inhibition as little suppression. Turning to `COC(=O)CCC(=O)O[C@@H]1CC[C@@H](C[C@@H](C)[C@@H]2CC(=O)[C@H](C)/C=C(\C)[C@@H](O)[C@@H](OC)C(=O)[C@H](C)C[C@H](C)/C=C/C=C/C=C(\C)[C@@H](OC)C[C@@H]3CC[C@@H](C)[C@@](O)(O3)C(=O)C(=O)N3CCCC[C@H]3C(=O)O2)C[C@H]1OC` [Example 12, Rapamycin-42-monomethylsuccinate], the “Skin Graft (days + SD), mean graft survival time” value (“Skin Graft (days + SD)” for short) with pinch skin graft is 10.8 ± 0.4 days. Further, the antifungal activity entry in assay [1] is on record as “considered to have antifungal activity”. Further, 0.1 µM produced 97% inhibition in [2] (Mus musculus, Lymphocyte, percent inhibition at 100 nM).

Regarding `CO[C@H]1C[C@@H]2CC[C@@H](C)[C@@](O)(O2)C(=O)C(=O)N2CCCC[C@H]2C(=O)O[C@H]([C@H](C)C[C@@H]2CC[C@@H](OC(=O)CCC(=O)OCc3ccc(C(F)(F)F)cc3)[C@H](OC)C2)CC(=O)[C@H](C)/C=C(\C)[C@@H](O)[C@@H](OC)C(=O)[C@H](C)C[C@H](C)/C=C/C=C/C=C/1C` [Example 13, Rapamycin-42-(4-trifluoromethylbenzyl)succinate], the “Skin Graft (days + SD)” value with pinch skin graft amounted to 10.6 ± 0.9 days. Further, the antifungal activity result in assay [1] is recorded as “considered to have antifungal activity”. The “LAF (ratio)” value in [2] is 2.11.

Turning to `CO[C@H]1C[C@@H]2CC[C@@H](C)[C@@](O)(O2)C(=O)C(=O)N2CCCC[C@H]2C(=O)O[C@H]([C@H](C)C[C@@H]2CC[C@@H](O)[C@H](OC)C2)CC(=O)[C@H](C)/C=C(\C)[C@@H](O)[C@@H](OC)C(=O)[C@H](C)C[C@H](C)/C=C/C=C/C=C/1C` [Rapamycin], in [3], the “PLN (ratio)” value was 1.0. The “usefulness in preventing or treating disease” value in assay [4] was “systemic lupus erythematosus; also recorded: pulmonary inflammation; also recorded: insulin dependent diabetes mellitus; also recorded: smooth muscle cell proliferation and intimal thickening following vascular injury; also recorded: ocular inflammation”. Further, the antifungal activity entry with Candida albicans is “found to have antifungal activity, particularly against Candida albicans, both in vitro and in vivo”. Besides, in the assay with transplant rejection, the immunosuppressive effect result is given as “immunosuppressive effects”.

The MIC is the lowest concentration that inhibits growth of the organism. Regarding `CO[C@H]1C[C@@H]2CC[C@@H](C)[C@@](O)(O2)C(=O)C(=O)N2CCCC[C@H]2C(=O)O[C@H]([C@H](C)C[C@@H]2CC[C@@H](OC(=O)CCCC(=O)O)[C@H](OC)C2)CC(=O)[C@H](C)/C=C(\C)[C@@H](OC(=O)CCCC(=O)O)[C@@H](OC)C(=O)[C@H](C)C[C@H](C)/C=C/C=C/C=C/1C` [Example 5, Rapamycin-31,42-hemiglutarate bissodium salt], the “Skin Graft (days + SD)” value in the assay on pinch skin graft (bissodium salt) is listed as 8.0 ± 1.7 days. In addition, the MIC in assay [5] (ATCC 38246, bissodium salt) is > 0.4 µg/mL; in [6] (ATCC 38248, bissodium salt), > 0.4 µg/mL; in the assay on Candida albicans 3669 (strain 3669, bissodium salt), > 0.4 µg/mL; in assay [7] (ATCC 10231, bissodium salt), 0.4 µg/mL; in [8] (ATCC 38247, bissodium salt), > 0.4 µg/mL. Also, the “LAF (ratio)” value in [2] (bissodium salt) turned out to be 0.02.

In the case of `CO[C@H]1C[C@@H]2CC[C@@H](C)[C@@](O)(O2)C(=O)C(=O)N2CCCC[C@H]2C(=O)O[C@H]([C@H](C)C[C@@H]2CC[C@@H](OC(=O)CCCC(=O)O)[C@H](OC)C2)CC(=O)[C@H](C)/C=C(\C)[C@@H](OC(=O)CCCC(=O)O)[C@@H](OC)C(=O)[C@H](C)C[C@H](C)/C=C/C=C/C=C/1C` [Example 4, Rapamycin-31,42-bishemiglutarate], in the assay on pinch skin graft, the “Skin Graft (days + SD)” value was 10.2 ± 1.7 days. In addition, the MIC in assay [5] (Candida albicans, ATCC38246, ATCC 38246, read-out: MIC) is 0.2 µg/mL (≈ 0.175 µM); in [6] (Candida albicans, ATCC38248, ATCC 38248, read-out: MIC) it was 0.2 µg/mL (≈ 0.175 µM); in the assay with Candida albicans 3669 (Candida albicans, 3669, strain 3669, read-out: MIC) it was 0.4 µg/mL (≈ 0.35 µM); in assay [7] (Candida albicans, ATCC10231, ATCC 10231, read-out: MIC), > 0.4 µg/mL; in assay [8] (Candida albicans, ATCC38247, ATCC 38247, read-out: MIC), > 0.4 µg/mL. Besides, the “LAF (ratio)” value in assay [2] turned out to be 0.56.
